# Source: US4278675A, “Bronchodilating process” (Bristol-Myers Company, priority 1979, dated 1981)
# Where two headings read alike, the source gives them in different places.
# How the values were obtained:
# [1] = tested on: Arterial blood pressure (ABP); assay: In vivo hypotensive activity: arterial blood pressure (ABP) in anesthetized guinea pig; conditions: intravenous; for ABP ED20 (dose which reduces arterial blood pressure by 20%): anesthetized guinea pig, hypotensive activity; for Ratio ABP/ITP (hypotensive ED20/bronchodilating ED50): guinea pig, larger ratio = greater separation of bronchodilator activity and hypotensive side effect
# Protocol: (§1) The trachea of anesthetized guinea pig was cannulated and the ITP recorded on a polygraph under artificial ventilation. Arterial blood pressure (ABP; reflecting hypotensive activity) was also measured during the experiment. Either intravenous or intraduodenal routes of administration are used. […] The ratio of hypotensive ED20 /bronchodilating ED50 reflects an assessment of the separation of desirable bronchodilator activity from undesirable cardiovascular (hypotensive) effect in the compounds. The larger the ABP/ITP ratio, the greater separation of bronchodilator activity and hypotensive side effect.
# [2] = tested on: intratracheal pressure (ITP) in the guinea pig; assay: In vivo bronchodilator activity: decrease in intratracheal pressure (ITP) in anesthetized guinea pig; conditions: Cavia porcellus, intravenous, read-out: ITP ED50 (dose resulting in a 50% decrease in intratracheal pressure)
# Protocol: as §1
# [3] = tested on: Tracheal chains of guinea pig; assay: In vitro bronchodilator activity, tracheal chains of guinea pig (Magnus method); assay type: cell-based; conditions: Cavia porcellus, relative to 0.1 mcg./ml. isoproterenol, read-out: EC50 (concentration producing a relaxation which is 50% of the maximum response to 0.1 mcg./ml. of isoproterenol)
# Protocol: Tracheal chains of guinea pig were prepared by the method of A. Akcasu, Arch. Int. Pharmcodyn. […] The response to each test compound was recorded by the Magnus method and expressed as a percentage of the maximum response obtained with 0.1 mcg./ml. of isoproterenol prior to each experiment.
# [4] = prior art (U.S. Pat. No. 3,930,005), cited from earlier work
EC50 [3],SMILES,ABP ED20 (dose which reduces arterial blood pressure by 20%) [1],Ratio ABP/ITP (hypotensive ED20/bronchodilating ED50) [1],ED50 [2],anti-inflammatory activity ([4]; listed as 9-cyclohexyl-9H-adenine),anti-inflammatory activity ([4]; listed as drawing 2)
0.34 mg/L,CCCOc1nc(N)c2ncn(Cc3ccccc3)c2n1 [9-Benzyl-2-n-propoxy-9H-adenine],1.7 mg/kg,2.0,0.83 mg/kg,,
,"Cn1c(=O)c2[nH]cnc2n(C)c1=O [Aminophylline, reference compound]",1.4 mg/kg,,,,
0.91 mg/L,"Nc1ncnc2c1ncn2C1CCCCC1 [9-Cyclohexyl-9H-adenine, 9-cyclohexyl-9H-adenine]",> 3 mg/kg,> 1.2,0.24 mg/kg,no activity or activity of no practical value,relatively inactive
